Earlier results as cited in US8895557B2, “Pharmaceutical formulations of ecteinascidin compounds” (Pharma Mar, S.A., Sociedad Unipersonal, priority 2004, dated 2014).

Experiments:
[1] = test system: human tumour xenografts, including melanoma and ovarian and breast carcinoma; conditions: human tumour xenografts in athymic mice
[2] = test system: sarcoma and breast and ovarian carcinoma; conditions: phase I, patients with sarcoma and breast and ovarian carcinoma
[3] = mannitol/phosphate lyophilised product reconstituted with 5 ml Water for Injection, ambient temperature

COc1cc2c(cc1O)CCN[C@]21CS[C@@H]2c3c(OC(C)=O)c(C)c4c(c3[C@H](COC1=O)N1C2C2c3c(cc(C)c(OC)c3O)C[C@@H]([C@@H]1O)N2C)OCO4 (stereo partly shown) [ET-743, Ecteinascidin 743]
antineoplastic activity [1]: potent antineoplastic activity
clinical responses [2]: promising responses were observed
aqueous solubility: limited aqueous solubility
time for which the reconstituted solution is stable [3]: up to 24 h
